In patent publication US9029405B2, “5-(biphenyl-4-yl)-3-phenyl-1,2,4-oxadiazolyl derivatives as ligands on the sphingosine 1-phosphate(SIP)receptors” (Merck Serono S.A., priority 2010, dated 2015) one finds melting point, EC50 and Ki data, which are given here for 30 molecules.

Where a name gives a salt, the structure may show the parent alone. Read-outs that look alike come from different tables or passages of the source.

As usually defined, the melting point is the temperature of the solid-liquid transition. Usually EC50 stands for the concentration at which the effect is half-maximal. Lower therefore signals greater potency. One may read the Ki as the dissociation constant of the complex between target and ligand, obtained from inhibition or displacement.

Data set [1] has as its target T1, S1P1 (Homo sapiens, UniProt P21453). The data set is described as follows: S1P1 internalization assay in S1P1-U2OS cells (cell imaging). Set-up: host or cells: U2OS (human bone osteosarcoma epithelial cells). The class given is cell-based. As to conditions: U2OS cells expressing S1P1-EGFP, 384-well format. A digest of the protocol:
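U2OS cells stably expressing human S1P1-EGFP, serum-starved 2 h in medium with 0.1% fatty-acid-free BSA, then compound 1 h at 37° C. After fixation and Hoechst nuclear stain, receptor internalization imaged as EGFP spot count per nucleus.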
Target sequence in this assay (P21453 whole entry): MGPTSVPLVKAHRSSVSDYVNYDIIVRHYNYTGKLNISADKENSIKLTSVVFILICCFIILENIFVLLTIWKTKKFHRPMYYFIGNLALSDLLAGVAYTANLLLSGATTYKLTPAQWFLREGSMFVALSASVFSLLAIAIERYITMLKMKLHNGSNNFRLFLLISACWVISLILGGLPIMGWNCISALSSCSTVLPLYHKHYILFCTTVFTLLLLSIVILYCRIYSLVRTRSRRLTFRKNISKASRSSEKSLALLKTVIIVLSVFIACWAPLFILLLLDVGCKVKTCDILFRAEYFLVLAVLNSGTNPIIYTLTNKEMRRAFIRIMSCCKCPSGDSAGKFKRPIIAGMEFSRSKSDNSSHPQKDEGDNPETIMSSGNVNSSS

The next data set concerns the target S1P3 (Homo sapiens, UniProt Q99500). The data set can be described thus: Receptor binding assay, [33P]sphingosine 1-phosphate competition, membranes of CHO cells expressing S1P3. The method, boiled down:
(§1)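 SPA competition on CHO membranes with [33P]S1P at 30 pM (S1P1) or 15 pM (S1P3), in 50 mM HEPES pH 7.5, 5 mM MgCl2, 100 mM NaCl, 0.4% fatty acid-free BSA, 60 min at RT. Non-specific binding defined by 1000-fold unlabeled S1P; Ki values reported.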

The target in data set [2] is T1, S1P1. The data set can be described thus: Receptor binding assay, [33P]sphingosine 1-phosphate competition, membranes of CHO cells expressing S1P1. A digest of the protocol:
as §1
Target sequence in this assay (P21453 whole entry, species assumed): as the sequence (P21453 whole entry) above

Where [3] appears, read: 384 well plate, read-out: S1P3 Binding Ki [M] (384 well plate).
The mark [4] stands for this setting: 384 well plate, read-out: S1P1 Binding Ki [M] (384 well plate).
Where [5] appears, read: 96 well plate, read-out: S1P3 Binding Ki [M] (96 well plate).
Setting [6] is: 96 well plate, read-out: S1P1 Binding Ki [M] (96 well plate).

S1P3, sequence (Q99500 whole entry, species assumed): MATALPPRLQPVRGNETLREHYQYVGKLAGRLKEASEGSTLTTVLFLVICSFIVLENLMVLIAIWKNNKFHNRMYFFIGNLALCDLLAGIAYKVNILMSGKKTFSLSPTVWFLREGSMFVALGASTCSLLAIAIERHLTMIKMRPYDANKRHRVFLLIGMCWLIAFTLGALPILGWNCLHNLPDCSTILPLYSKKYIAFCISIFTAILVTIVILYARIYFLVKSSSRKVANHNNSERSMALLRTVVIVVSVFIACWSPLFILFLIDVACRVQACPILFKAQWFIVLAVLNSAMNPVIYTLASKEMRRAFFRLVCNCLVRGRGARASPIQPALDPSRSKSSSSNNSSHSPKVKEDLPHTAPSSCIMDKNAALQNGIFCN

Molecule `Cc1cc(-c2nc(-c3ccc([C@H](C)N(C)CC(=O)O)cc3)no2)ccc1-c1ccccc1C(F)(F)F` (as salt: hydrochloride) [Example 33, N-methyl-N-[(1S)-1-(4-{5-[2-methyl-2′-(trifluoromethyl)biphenyl-4-yl]-1,2,4-oxadiazol-3-yl}phenyl)ethyl]glycine, hydrochloride salt] registered a melting point of 217 °C.

Molecule `Cc1ccccc1-c1ccc(-c2nc(-c3ccc([C@H](C)N(C)CC(=O)O)cc3)no2)cc1C(F)(F)F` (as salt: hydrochloride) [Example 34, N-methyl-N-[(1S)-1-(4-{5-[2′-methyl-2-(trifluoromethyl)biphenyl-4-yl]-1,2,4-oxadiazol-3-yl}phenyl)ethyl]glycine, hydrochloride salt] displayed a melting point of 221 °C.

Consider `Cc1cc(-c2nc(-c3ccc([C@@H](C)N(C)CC(=O)O)cc3)no2)ccc1-c1ccccc1C(F)(F)F` (as salt: hydrochloride) [Example 35, N-methyl-N-[(1R)-1-(4-{5-[2-methyl-2′-(trifluoromethyl)biphenyl-4-yl]-1,2,4-oxadiazol-3-yl}phenyl)ethyl]glycine, hydrochloride salt], for which the melting point was 217 °C.

Turning to `Cc1ccccc1-c1ccc(-c2nc(-c3ccc([C@@H](C)N(C)CC(=O)O)cc3)no2)cc1C(F)(F)F` (as salt: hydrochloride) [Example 36, N-methyl-N-[(1R)-1-(4-{5-[2′-methyl-2-(trifluoromethyl)biphenyl-4-yl]-1,2,4-oxadiazol-3-yl}phenyl)ethyl]glycine, hydrochloride salt], the melting point was found to be 221 °C.

`Cc1cc(-c2nc(-c3cccc(C(C)NCC(=O)O)c3)no2)ccc1-c1ccccc1C(F)(F)F` (stereo not shown) (as salt: hydrochloride) [Example 38, N-[1-(3-{5-[2-methyl-2′-(trifluoromethyl)biphenyl-4-yl]-1,2,4-oxadiazol-3-yl}phenyl)ethyl]glycine, hydrochloride salt] showed a melting point of 176 °C.

Regarding `Cc1ccccc1-c1ccc(-c2nc(-c3ccc(C(C)N(C)CC(=O)O)cc3)no2)cc1C(F)(F)F` (stereo not shown) (as salt: hydrochloride) [Example 40, N-methyl-N-[1-(4-{5-[2′-methyl-2-(trifluoromethyl)biphenyl-4-yl]-1,2,4-oxadiazol-3-yl}phenyl)ethyl]glycine, hydrochloride salt], the melting point is 204 °C.

Consider `Cc1ccccc1-c1ccc(-c2nc(-c3ccc(CN[C@@H](C)C(=O)O)cc3)no2)cc1C(F)(F)F` [Example 67], for which the EC50 at S1P1 [1] was determined as 28.5 nM. For the same molecule, the Ki at S1P3 (setting [3]) was 4.49e-06 M; on S1P1 [2] (setting [4]), 3.45e-09 M.

On to `Cc1ccccc1-c1ccc(-c2nc(-c3ccc(CN[C@H](C)C(=O)O)cc3)no2)cc1C(F)(F)F` [Example 68], for which the concentration for a half-maximal effect (EC50) at S1P1 [1] amounted to 20.5 nM. The inhibitory constant (Ki) stood at 7.57e-06 M at S1P3 (setting [3]) and 2.47e-09 M on S1P1 [2] (setting [4]).

At S1P1 [1], `CC[C@@H](C(=O)O)N(C)Cc1ccc(-c2noc(-c3ccc(-c4ccccc4C)c(C(F)(F)F)c3)n2)cc1` [Example 69, (2S)-2-(methyl(4-(5-(2′-methyl-2-(trifluoromethyl)biphenyl-4-yl)-1,2,4-oxadiazol-3-yl)benzyl)amino)butanoic acid] registered an EC50 of 49.1 nM. Further, the Ki at S1P3 (setting [3]) was found to be 4.07e-06 M; at S1P1 [2] (setting [4]) it was 5.2e-09 M.

For the molecule `Cc1ccccc1-c1ccc(-c2nc(-c3ccc(CN(C)[C@@H](C)C(=O)O)cc3)no2)cc1C(F)(F)F` [Example 70], it took 18.8 nM to reach a half-maximal effect on S1P1 [1] (EC50). Further, the inhibitory constant (Ki) at S1P3 (setting [3]) came out at 7.53e-07 M; on S1P1 [2] (setting [4]), 2.98e-09 M.

On S1P1 [1], `Cc1ccccc1-c1ccc(-c2nc(-c3ccc(CN(C)[C@H](C)C(=O)O)cc3)no2)cc1C(F)(F)F` [Example 71] came in with an EC50 of 5.66 nM. The Ki is 7.01e-07 M at S1P3 (setting [5]), 7.7e-07 M on S1P3 (setting [3]) and 2e-09 M at S1P1 [2] (setting [4]).

Regarding `Cc1ccccc1-c1ccc(-c2nc(-c3ccc(CN(C)[C@H](CO)C(=O)O)cc3)no2)cc1C(F)(F)F` [Example 72], the EC50 at S1P1 [1] is 31.9 nM. Further, the inhibition constant Ki on S1P3 (setting [3]) was found to be 2.66e-06 M; on S1P1 [2] (setting [4]), 3.94e-09 M.

Consider `Cc1ccccc1-c1ccc(-c2nc(-c3ccc(CN(C)C4(C(=O)O)CCCC4)cc3)no2)cc1C(F)(F)F` [Example 73], for which a half-maximal response at S1P1 [1] (EC50) required 29.8 nM. In addition, the inhibition constant Ki at S1P3 (setting [3]) was determined as 5.42e-06 M; on S1P1 [2] (setting [4]), 2.27e-09 M.

On S1P1 [1], `Cc1ccccc1-c1ccc(-c2nc(-c3ccc(CN(C)C(C)(CO)C(=O)O)cc3)no2)cc1C(F)(F)F` (stereo not shown) [Example 75] had a 50% effective concentration (EC50) of 30.2 nM. The figures for the Ki on S1P3 (setting [3]) and on S1P1 [2] (setting [4]) were 2.3e-06 M and 5.3e-09 M, respectively.

On to `Cc1ccccc1-c1ccc(-c2nc(-c3cccc(CNC(C)(CO)C(=O)O)c3)no2)cc1C(F)(F)F` (stereo not shown) [Example 78], for which the response at S1P1 [1] was half-maximal at 22.3 nM (EC50). Besides, the values for the inhibition constant Ki on S1P3 (setting [3]) and at S1P1 [2] (setting [4]) were 2.78e-07 M and 2.16e-09 M, respectively.

With `Cc1ccccc1-c1ccc(-c2nc(-c3cccc(CNC(C(=O)O)C(C)C)c3)no2)cc1C(F)(F)F` (stereo not shown) [Example 79], the EC50 at S1P1 [1] was determined as 15.1 nM. The figures for the inhibitory constant (Ki) at S1P3 (setting [5]), on S1P3 (setting [3]) and on S1P1 [2] (setting [4]) were 3.32e-08 M, 2.67e-07 M and 1.07e-09 M, respectively.

In turn, `Cc1ccccc1-c1ccc(-c2nc(-c3cccc(CNC4(C(=O)O)CCC4)c3)no2)cc1C(F)(F)F` [Example 80] returned an EC50 at S1P1 [1] of 1.22 nM. The figures for the inhibitory constant (Ki) at S1P3 (setting [3]) and on S1P1 [2] (setting [4]) were 3.51e-08 M and 3.18e-10 M, respectively.

In the case of `Cc1ccccc1-c1ccc(-c2nc(-c3cccc(CN(C)[C@@H](C)C(=O)O)c3)no2)cc1C(F)(F)F` [Example 81], the response on S1P1 [1] was half-maximal at 49.5 nM (EC50). The inhibitory constant (Ki) was 1.72e-07 M at S1P3 (setting [3]) and 1.72e-09 M on S1P1 [2] (setting [4]).

`Cc1ccccc1-c1ccc(-c2nc(-c3cccc(CN[C@H](C)C(=O)O)c3)no2)cc1C(F)(F)F` [Example 82] returned a concentration giving a half-maximal response (EC50) on S1P1 [1] of 25.1 nM. The inhibition constant Ki on S1P3 (setting [3]) was 1.17e-07 M; on S1P1 [2] (setting [4]), 1.01e-09 M.

Regarding `Cc1ccccc1-c1ccc(-c2nc(-c3cccc(CN(C)C(C(=O)O)C(C)C)c3)no2)cc1C(F)(F)F` (stereo not shown) [Example 85], the 50% effective concentration (EC50) on S1P1 [1] was 47.9 nM. The inhibitory constant (Ki) on S1P3 (setting [3]) was determined as 7.93e-07 M; at S1P1 [2] (setting [4]), 5.26e-09 M.

Consider `CC[C@@H](C(=O)O)N(C)Cc1cccc(-c2noc(-c3ccc(-c4ccccc4C)c(C(F)(F)F)c3)n2)c1` [Example 86], for which a half-maximal response at S1P1 [1] (EC50) required 39.7 nM. Besides, the figures for the Ki on S1P3 (setting [3]) and at S1P1 [2] (setting [4]) were 5.55e-07 M and 5.88e-09 M, respectively.

`CCN(Cc1cccc(-c2noc(-c3ccc(-c4ccccc4C)c(C(F)(F)F)c3)n2)c1)[C@H](CO)C(=O)O` [Example 87, (R)-2-(Ethyl-{3-[5-(2′-methyl-2-trifluoromethyl-biphenyl-4-yl)-[1,2,4]oxadiazol-3-yl]-benzyl}-amino)-3-hydroxy-propionic acid]: on S1P1 [1], the concentration giving a half-maximal response (EC50) is 24.9 nM. The figures for the Ki at S1P3 (setting [3]) and at S1P1 [2] (setting [4]) were 4.68e-07 M and 2.29e-09 M, respectively.

As for `CCN(Cc1ccc(-c2noc(-c3ccc(-c4ccccc4C)c(C(F)(F)F)c3)n2)cc1)[C@@H](C)C(=O)O` [Example 89, (2S)-2-(ethyl(4-(5-(2′-methyl-2-(trifluoromethyl)biphenyl-4-yl)-1,2,4-oxadiazol-3-yl)benzyl)amino)propanoic acid], on S1P1 [1], the concentration for a half-maximal effect (EC50) amounted to 32.2 nM. The Ki on S1P3 (setting [3]) was 2.03e-06 M; at S1P1 [2] (setting [4]), 2.56e-09 M.

`CCN(Cc1ccc(-c2noc(-c3ccc(-c4ccccc4C)c(C(F)(F)F)c3)n2)cc1)[C@H](C)C(=O)O` [Example 90, (R)-2-(Ethyl-{4-[5-(2′-methyl-2-trifluoromethyl-biphenyl-4-yl) [1,2,4]oxadiazol-3-yl]-benzyl}-amino)-propionic acid]: on S1P1 [1], the EC50 was determined as 7.92 nM. The figures for the inhibitory constant (Ki) at S1P3 (setting [3]) and on S1P1 [2] (setting [4]) were 9.48e-07 M and 2.48e-09 M, respectively.

On to `Cc1ccccc1-c1ccc(-c2nc(-c3ccc(CCN[C@H](C(=O)O)C(C)C)cc3)no2)cc1C(F)(F)F` [Example 91, (2S)-3-methyl-2-(4-(5-(2′-methyl-2-(trifluoromethyl)biphenyl-4-yl)-1,2,4-oxadiazol-3-yl)phenethylamino)butanoic acid], for which the concentration giving a half-maximal response (EC50) at S1P1 [1] came to 34.5 nM. The inhibitory constant (Ki) on S1P3 (setting [3]) came out at 7.36e-06 M; on S1P1 [2] (setting [4]), 8.12e-09 M.

Regarding `Cc1ccccc1-c1ccc(-c2nc(-c3ccc(CCN[C@@H](C)C(=O)O)cc3)no2)cc1C(F)(F)F` [Example 92], on S1P1 [1], a half-maximal response (EC50) required 29.5 nM. Further, the inhibition constant Ki was 1.24e-06 M at S1P3 (setting [3]) and 6.94e-09 M at S1P1 [2] (setting [4]).

`Cc1ccccc1-c1ccc(-c2nc(-c3ccc(CCN[C@H](C)C(=O)O)cc3)no2)cc1C(F)(F)F` [Example 93]: at S1P1 [1], the 50% effective concentration (EC50) stood at 28.6 nM. Besides, the Ki on S1P3 (setting [3]) was found to be 4.67e-06 M; at S1P1 [2] (setting [4]) it was 1.22e-08 M.

As to `Cc1ccccc1-c1ccc(-c2nc(-c3cccc(CCN[C@@H](C)C(=O)O)c3)no2)cc1C(F)(F)F` [Example 94, (2S)-2-(3-(5-(2′-methyl-2-(trifluoromethyl)biphenyl-4-yl)-1,2,4-oxadiazol-3-yl)phenethylamino)propanoic acid], the EC50 on S1P1 [1] amounted to 2.91 nM. Also, the Ki on S1P3 (setting [3]) is 7.4e-08 M; at S1P1 [2] (setting [6]), 1.85e-10 M; at S1P1 [2] (setting [4]), 1.01e-09 M.

For `Cc1ccccc1-c1ccc(-c2nc(-c3cccc(CCN[C@H](C)C(=O)O)c3)no2)cc1C(F)(F)F` [Example 95], the EC50 on S1P1 [1] was found to be 4.25 nM. Also, the results for the Ki at S1P3 (setting [3]), at S1P1 [2] (setting [6]) and at S1P1 [2] (setting [4]) were 1.12e-07 M, 2.15e-10 M and 8.46e-10 M, respectively.

Consider `Cc1ccccc1-c1ccc(-c2nc(-c3cccc(CCN[C@H](C(=O)O)C(C)C)c3)no2)cc1C(F)(F)F` [Example 96], for which a half-maximal response on S1P1 [1] (EC50) required 3.73 nM. The inhibitory constant (Ki) at S1P3 (setting [3]) was 1.78e-07 M; at S1P1 [2] (setting [4]) it was 5.33e-10 M.
